{
  "source": "PubChem BioAssay AID1259407",
  "about": "(Chemical Carcinogenesis Research Information System (CCRIS), 2018)",
  "tested_on": "CCRIS mutagenicity, Ames/micronucleus/aberration tests",
  "experiment": "CCRIS mutagenicity studies",
  "key": {"[1]": {"conditions": "Test System: AMES SALMONELLA TYPHIMURIUM, Strain/Indicator: TA98, Metabolic Activation: NONE, Method: STANDARD PLATE"}, "[2]": {"conditions": "Test System: AMES SALMONELLA TYPHIMURIUM, Strain/Indicator: TA100, Metabolic Activation: NONE, Method: STANDARD PLATE"}},
  "note": "Calls of active or inactive are those of the source. No rule for the calls is given here.",
  "data": [
    {"compound": "Nc1ccc(/C=C/c2cccc(N)c2)cc1", "values": [
      {"measurement": "mutagenic call", "setting": "Test System: AMES SALMONELLA TYPHIMURIUM, Strain/Indicator: TA98(1,8-DNP6), Metabolic Activation: NONE, Method: STANDARD PLATE", "value": "inactive; negative"},
      {"measurement": "mutagenic call", "setting": "Test System: AMES SALMONELLA TYPHIMURIUM, Strain/Indicator: TA98(1,8-DNP6), Metabolic Activation: S-9, Method: STANDARD PLATE", "value": "active; positive"},
      {"measurement": "mutagenic call", "setting": "[1]", "value": "active; positive"},
      {"measurement": "mutagenic call", "setting": "Test System: AMES SALMONELLA TYPHIMURIUM, Strain/Indicator: TA98, Metabolic Activation: S-9, Method: STANDARD PLATE", "value": "active; positive"},
      {"measurement": "mutagenic call", "setting": "[2]", "value": "inactive; negative"},
      {"measurement": "mutagenic call", "setting": "Test System: AMES SALMONELLA TYPHIMURIUM, Strain/Indicator: TA100, Metabolic Activation: S-9, Method: STANDARD PLATE", "value": "active; positive"}
    ]},
    {"compound": "O=P(O)(O)OC1C(OP(=O)(O)O)C(OP(=O)(O)O)C(OP(=O)(O)O)C(OP(=O)(O)O)C1OP(=O)(O)O", "note": "(configuration not stated)", "values": [
      {"measurement": "mutagenic call", "setting": "Test System: MOUSE LYMPHOMA, Strain/Indicator: L5178Y (TK+/TK-), Metabolic Activation: NONE, Method: SUSPENSION/PLATE", "value": "inactive; negative. reevaluation of results: negative"},
      {"measurement": "mutagenic call", "setting": "Test System: MOUSE LYMPHOMA, Strain/Indicator: L5178Y (TK+/TK-), Metabolic Activation: RAT, LIVER, S-9, AROCLOR 1254, Method: SUSPENSION/PLATE", "value": "inactive; negative. reevaluation of results: negative"}
    ]},
    {"compound": "NCCc1c[nH]c2ccc(O)cc12", "note": "(tested in a mixture with another compound)", "values": [
      {"measurement": "mutagenic call", "setting": "Test System: AMES SALMONELLA TYPHIMURIUM, Strain/Indicator: TA97A, Metabolic Activation: NONE, Method: STANDARD PLATE", "value": "inactive; negative"},
      {"measurement": "mutagenic call", "setting": "Test System: AMES SALMONELLA TYPHIMURIUM, Strain/Indicator: TA97A, Metabolic Activation: RAT LIVER S-9, PHENOBARBITOL/BETA-NAPHTHOFLAVONE, Method: STANDARD PLATE", "value": "inactive; negative"},
      {"measurement": "mutagenic call", "setting": "[1]", "value": "inactive; negative"},
      {"measurement": "mutagenic call", "setting": "Test System: AMES SALMONELLA TYPHIMURIUM, Strain/Indicator: TA98, Metabolic Activation: RAT LIVER S-9, PHENOBARBITOL/BETA-NAPHTHOFLAVONE, Method: STANDARD PLATE", "value": "inactive; negative"},
      {"measurement": "mutagenic call", "setting": "[2]", "value": "inactive; negative"},
      {"measurement": "mutagenic call", "setting": "Test System: AMES SALMONELLA TYPHIMURIUM, Strain/Indicator: TA100, Metabolic Activation: RAT LIVER S-9, PHENOBARBITOL/BETA-NAPHTHOFLAVONE, Method: STANDARD PLATE", "value": "inactive; negative"},
      {"measurement": "mutagenic call", "setting": "Test System: AMES SALMONELLA TYPHIMURIUM, Strain/Indicator: TA1535, Metabolic Activation: NONE, Method: STANDARD PLATE", "value": "inactive; negative"},
      {"measurement": "mutagenic call", "setting": "Test System: AMES SALMONELLA TYPHIMURIUM, Strain/Indicator: TA1535, Metabolic Activation: RAT LIVER S-9, PHENOBARBITOL/BETA-NAPHTHOFLAVONE, Method: STANDARD PLATE", "value": "inactive; negative"},
      {"measurement": "mutagenic call", "setting": "Test System: AMES SALMONELLA TYPHIMURIUM, Strain/Indicator: TA1537, Metabolic Activation: NONE, Method: STANDARD PLATE", "value": "inactive; negative"},
      {"measurement": "mutagenic call", "setting": "Test System: AMES SALMONELLA TYPHIMURIUM, Strain/Indicator: TA1537, Metabolic Activation: RAT LIVER S-9, PHENOBARBITOL/BETA-NAPHTHOFLAVONE, Method: STANDARD PLATE", "value": "inactive; negative"},
      {"measurement": "mutagenic call", "setting": "Test System: E.COLI, Strain/Indicator: WP2/UVRA, Metabolic Activation: NONE, Method: STANDARD PLATE", "value": "inactive; negative"},
      {"measurement": "mutagenic call", "setting": "Test System: E.COLI, Strain/Indicator: WP2/UVRA, Metabolic Activation: RAT LIVER S-9, PHENOBARBITOL/BETA-NAPHTHOFLAVONE, Method: STANDARD PLATE", "value": "inactive; negative"}
    ]},
    {"compound": "COc1cc2c(c3oc(=O)c4c(c13)CCOC4=O)[C@@H]1C=CO[C@@H]1O2", "values": [
      {"measurement": "mutagenic call", "setting": "Test System: AMES SALMONELLA TYPHIMURIUM, Strain/Indicator: TA98, Metabolic Activation: RAT, LIVER, MICROSOMES, PHENOBARBITAL, Method: STANDARD PLATE", "value": "active; positive"},
      {"measurement": "mutagenic call", "setting": "Test System: AMES SALMONELLA TYPHIMURIUM, Strain/Indicator: TA98, Metabolic Activation: RAT, LIVER, S-9, PHENOBARBITAL, Method: STANDARD PLATE", "value": "active; positive"},
      {"measurement": "mutagenic call", "setting": "Test System: AMES SALMONELLA TYPHIMURIUM, Strain/Indicator: TA100, Metabolic Activation: NONE, Method: PREINCUBATION", "value": "active; positive"},
      {"measurement": "mutagenic call", "setting": "Test System: AMES SALMONELLA TYPHIMURIUM, Strain/Indicator: TA100, Metabolic Activation: RAT, LIVER, MICROSOMES, PHENOBARBITAL, Method: STANDARD PLATE", "value": "active; positive"},
      {"measurement": "mutagenic call", "setting": "Test System: AMES SALMONELLA TYPHIMURIUM, Strain/Indicator: TA100, Metabolic Activation: RAT, LIVER, S-9, PHENOBARBITAL, Method: PREINCUBATION", "value": "active; positive"},
      {"measurement": "mutagenic call", "setting": "Test System: UDS HUMAN FIBROBLASTS, Strain/Indicator: THY INCORP (NON-S-PHASE), Metabolic Activation: MOUSE, LIVER, S-9, Method: AUTORADIOGRAPHY", "value": "active; positive"},
      {"measurement": "mutagenic call", "setting": "Test System: UDS RODENT HEPATOCYTES, Strain/Indicator: THY INCORP (NON-S-PHASE), Method: AUTORADIOGRAPHY", "value": "active; positive"}
    ]}
  ]
}
